Reference: patent US20150335678A1, “METHOD OF ACTIVATING STEM CELLS IN AN ANIMAL AND THE USE OF CHLORINE DIOXIDE FOR PREPARING MEDICINES FOR ACTIVATING STEM CELLS IN AN ANIMAL” (priority 2012, published 2015)

Columns and labels:
[1] = system: Helicobacter pylori; assay: hp-positive gastric ulcer patients: HP negative conversing, rapid urease test; format: in vivo, human; settings: 30 patients per group
Description: The subjects consisted of 90 gastric ulcer patients (50 male and 40 female) of hp-positive aged from 33 to 75 years old (average age: 41 years old). The subjects were randomly assigned to treatment group and control group with 30 patients in treatment group and 30 in control group 1 and 30 in control group 2 respectively.
Allow the solution to mix for 3-5 minutes. The capsule that containing activating agent of stem cells was made by injecting the mixed solution into the soft capsule of number 0.
The capsule that containing activating agent of stem cells was administered to the patients in treatment group three times a day and a pill each time; 30 minutes before meals, patients in control group 1 took orally 15 mg colloidal bismuth and 100 mg pectin tinidazole for three times a day. And 20 mg Omeprazole two times a day; patients in control group 2 took orally […] amoxicillin and 500 mg clindamycin three times a day and 20 mg esomeprazole twice a day before meals. Both groups were administered for a consecutive week. To observe the improvement of the clinical symptoms of the three cases two weeks after administration, such as stomachache, nausea and sour regurgitation. […]
Criteria for measuring the effects: the changes of conditions before and after treatment and the time the symptoms disappear were recorded precisely. […]

[2] = system: CD34-positive/CD31-positive mononuclear cells; assay: CD34-positive/CD31-positive mononuclear cells in peripheral blood of lower limb DVT patients, flow cytometry; format: in vivo, human; settings: before administration 0.28 ± 0.30, diluted solution 10 ml/body/day femoral artery puncture, 14 days
Description: The subjects consisted of 14 male and 6 female lower limb DVT patients with the unilateral limb suffer from the illness, aged from 59 to 76 years old (average age: 67.2 years old). The purpose of the clinical test was explained to all subjects and their consent was obtained before conducting the clinical test.
The first solution was a mixed solution made of sodium chlorite with the concentration of 7.47% and sodium chloride with the concentration of 1.59% with deionized water; the second solution was made of citric acid with the concentration of 16.7% with deionized water. Same volume of solutions were taken out from different vessels with different volumes and mixed up. […]
Five ml of peripheral blood was collected from the median cubital vein of the forearm of each patient using low molecular weight heparin anticoagulant before administration (before initial administration) and on day 7 and 14 after administration, and the collected blood was immediately stored at 4° C. and measured within 6 hours after collection. […]
CD34-positive mononuclear cells/CD31-positive mononuclear cells were isolated by double immunofluorescent using flow cytometry. […] Next, CD34/CD31-positive mononuclear cells were isolated and counted by flow cytometry. The ratio (%) of CD34/CD 31-positive mononuclear cells among the mononuclear cells was calculated according to the following formula. […]

[3] = system: BrdU-positive cells (neural stem cells and neural progenitor cells); assay: BrdU-positive and BrdU-positive/nestin-positive (proliferating) cells in the SVZ region; format: in vivo, Sprague-Dawley rats; settings: for number of BrdU-positive cells in the SVZ region, proliferation (mean±SD): BrdU on day 5, 6, 12, 13, 19, 20
Description: Male Sprague-Dawley rats with the age of 12 weeks and weight of 250^˜280 g were used in the experiment after acclimating for a week.
A middle cerebral artery occlusion model was first established in compliance with the method of Longa E Z et al. (Longa E Z, et al. Reversible middle cerebral artery occlusion without craniectomy in rats. Stroke 20:84-91, 1989). More specifically, 0.36 g/kg of 10% chloral hydrate was administered intraperitoneally to rats which had been fasted for 12 hours (although given free access to water) to anesthetize the rats. Next, a midline incision was made in the neck to expose the right common carotid artery. Then, the internal carotid artery and external carotid artery were separated, the posterior carotid artery, which is a branch of the external carotid artery, and the thyroidea arteria were coagulated and severed, the external carotid artery was ligated at the branch of the lingual artery and maxillary artery, a small puncture was formed in the external carotid artery, 4-0 Nylon suture was passed through the common carotid artery from the puncture, and gradually inserted into the internal carotid artery until there was resistance. The length of the Nylon suture was about 18^˜20 mm from the branch of the common carotid artery. As a result of occluding the middle cerebral artery with Nylon suture, an ischemic state was applied for 2 hours to create a middle cerebral artery occlusion model.
A cerebral ischemia/reperfusion injury model was established by removing the Nylon suture from the middle cerebral artery of the occlusion model and following reperfusion of blood.
The first solution was a mixed solution made of sodium chlorite with the concentration of 7.47% and sodium chloride with the concentration of 1.59% with deionized water; the second solution was made of citric acid with the concentration of 16.7% with deionized water. Same volume of solutions were taken out from different vessels with different volumes and mixed up. Allow the solution to mix for 3-5 minutes and dilute it five times with normal saline, and then filter it with 0.22 μm filter membrane of double-deck. The solution was immediately put into injector. The solution was prepared once being used.
Treatment group (120 rats): A cerebral ischemia/reperfusion injury model was established for the rats already. To administer chlorine dioxide solution everytime that prepared from procedure (3) through carotid artery after the second day the model has established, once a day for total ten days.
On day 5, 6, 12, 13, 19 and 20 after the model established, 50 mg/kg of 5-bromodeoxyuridine was injected intraperitoneally into 30 rats in each group. Because BrdU is a thymidine analog, it can incorporate into the DNA of cells during the course of cell proliferation (DNA synthesis). Thus, cell proliferation can be analyzed by detecting the amount of intracellular BrdU. The rats were autopsied on day 7, 14 and 21 after the model established for preparation of frozen brain sections. The presence of BrdU-positive cells by immunochemical stain, and the presence of BrdU-positive/nestin-positive cells by double-immunofluorescent stain in the SVZ region were analyzed.
The presence of BrdU-positive cells was analyzed using mouse anti-rat BrdU monoclonal antibody.
The presence of BrdU-positive/nestin-positive cells was analyzed by double-immunofluorescent stain using a combination of primary antibody of goat anti-rat BrdU polyclonal antibody and secondary antibody of FITC-labeled rabbit anti-goat antibody, and a combination of primary antibody of mouse anti-rat nestin monoclonal antibody and secondary antibody of Rho-labeled rabbit anti-mouse antibody.
BRt(%)=(Bt−St)/(Mt−St)×100

Structure (SMILES): [O][Cl+][O-] [chlorine dioxide solution, chlorine dioxide]
- HP negative conversing (%) ([1]; rapid urease test after 30 days): 96.6%
- HP negative conversing (No.) ([1]; rapid urease test of gastric mucosa after 30 days): 29
- CD34-Positive/CD31-Positive Mononuclear Cells (ratio among mononuclear cells, mean±SD) ([2]; Day 7 after administration, n=20): 0.85 ± 0.51 %
- CD34-Positive/CD31-Positive Mononuclear Cells (ratio among mononuclear cells, mean±SD) ([2]; Day 14 after administration, n=15): 1.1 ± 0.65 %
- BRt: BrdU-positive cells (proliferation) in treatment group relative to model group = 100% ([3]; Day 7): 157.4%
- number of BrdU-positive cells in the SVZ region, proliferation (mean±SD) ([3]; Day 7, model group 136.56 ± 9.93, sham 52.8 ± 3.85, diluted solution via carotid artery once a day, ten days): 184.61 ± 12.3 No. cells/mm2
- BRt: BrdU-positive cells (proliferation) in treatment group relative to model group = 100% ([3]; Day 14): 156.9%
- number of BrdU-positive cells in the SVZ region, proliferation (mean±SD) ([3]; Day 14, model group 328.6 ± 12.5, sham 33.9 ± 2.95): 496.2 ± 30.6 No. cells/mm2
- BRt: BrdU-positive cells (proliferation) in treatment group relative to model group = 100% ([3]; Day 21): 141.2%
- number of BrdU-positive cells in the SVZ region, proliferation (mean±SD) ([3]; Day 21, model group 279.9 ± 12.8, sham 23.9 ± 1.95): 385.3 ± 20.9 No. cells/mm2
- presence of proliferating nestin-positive/BrdU-positive cells in the SVZ region ([3]; treatment group, double-immunofluorescent stain): confirmed
